In brackets after ≈: the same amount, converted by molar mass.
How the values were obtained:
[1] = test system: Staphylococcus aureus; test: Antimicrobial activity against Staphylococcus aureus ATCC 25923 assessed as reduction in microbial growth incubated for 18 hrs by CLSI-based Mueller-Hinton broth dilution method; assay type: functional
[2] = test system: Erythrocyte; test: Hemolytic activity in mouse erythrocyte assessed as hemolysis incubated for 1 hr by microplate reader analysis; assay type: toxicity, cell-based
[3] = test system: Pseudomonas aeruginosa; test: Antibacterial activity against Pseudomonas aeruginosa ATCC 27853 assessed as reduction in bacterial growth incubated for 18 hrs by CLSI-based Mueller-Hinton broth dilution method; assay type: functional
[4] = test system: Acinetobacter baumannii; test: Antibacterial activity against Acinetobacter baumannii ATCC 19606 assessed as reduction in bacterial growth incubated for 18 hrs by CLSI-based Mueller-Hinton broth dilution method; assay type: functional
[5] = test system: Escherichia coli; test: Antibacterial activity against Escherichia coli ML-35 ATCC 43837 assessed as reduction in bacterial growth incubated for 18 hrs by CLSI-based Mueller-Hinton broth dilution method; assay type: functional
[6] = test system: Bacillus subtilis; test: Antibacterial activity against Bacillus subtilis ATCC 23857 assessed as reduction in bacterial growth incubated for 18 hrs by CLSI-based Mueller-Hinton broth dilution method; assay type: functional
[7] = test system: Klebsiella pneumoniae; test: Antibacterial activity against Klebsiella pneumoniae ATCC 700603 assessed as reduction in bacterial growth incubated for 18 hrs by CLSI-based Mueller-Hinton broth dilution method; assay type: functional
[8] = test system: Staphylococcus epidermidis; test: Antibacterial activity against Staphylococcus epidermidis ATCC 12228 assessed as reduction in bacterial growth incubated for 18 hrs by CLSI-based Mueller-Hinton broth dilution method; assay type: functional

MIC [1]	MIC [3]	MIC [4]	MIC [5]	MIC [6]	MIC [7]	MIC [8]	Compound	HC10 [2]
8 µM	16 µM (≈ 20.7 µg/mL)	8 µM (≈ 10.4 µg/mL)	4 µM (≈ 5.18 µg/mL)	2 µM (≈ 2.59 µg/mL)	32 µM (≈ 41.4 µg/mL)	4 µM (≈ 5.18 µg/mL)	CCCCCCCCC(=O)NCCCC[C@@H](NC(=O)[C@@H](NC(=O)[C@H](CCCNC(=N)N)NC(=O)[C@@H](CCCCN)NC(=O)[C@H](CC(C)C)NC(=O)[C@H](CC(C)C)NC(=O)CN)[C@@H](C)CC)C(=O)N[C@H](C(=O)N[C@@H](CC(C)C)C(=O)N[C@@H](CC(C)C)C(N)=O)[C@@H](C)O	256 µM
8 µM	4 µM (≈ 5.29 µg/mL)	4 µM (≈ 5.29 µg/mL)	4 µM (≈ 5.29 µg/mL)	2 µM (≈ 2.64 µg/mL)	8 µM (≈ 10.6 µg/mL)	4 µM (≈ 5.29 µg/mL)	CCCCCCCCCCC(=O)NCCCC[C@@H](NC(=O)[C@@H](NC(=O)[C@H](CCCNC(=N)N)NC(=O)[C@@H](CCCCN)NC(=O)[C@H](CC(C)C)NC(=O)[C@H](CC(C)C)NC(=O)CN)[C@@H](C)CC)C(=O)N[C@H](C(=O)N[C@@H](CC(C)C)C(=O)N[C@@H](CC(C)C)C(N)=O)[C@@H](C)O	128 µM
8 µM	8 µM (≈ 10.6 µg/mL)	16 µM (≈ 21.1 µg/mL)	8 µM (≈ 10.6 µg/mL)	4 µM (≈ 5.29 µg/mL)	32 µM (≈ 42.3 µg/mL)	2 µM (≈ 2.64 µg/mL)	CCCCCCCCCCC(=O)NCCCC[C@@H](NC(=O)[C@H](CC(C)C)NC(=O)[C@H](CC(C)C)NC(=O)CN)C(=O)N[C@@H](CCCNC(=N)N)C(=O)N[C@H](C(=O)N[C@H](CCCCN)C(=O)N[C@H](C(=O)N[C@@H](CC(C)C)C(=O)N[C@@H](CC(C)C)C(N)=O)[C@@H](C)O)[C@@H](C)CC	256 µM
> 128 µM	> 128 µM	> 128 µM	> 128 µM	> 128 µM	> 128 µM	> 128 µM	CCCCC(=O)NCCCC[C@@H](NC(=O)[C@H](CC(C)C)NC(=O)[C@H](CC(C)C)NC(=O)CN)C(=O)N[C@@H](CCCNC(=N)N)C(=O)N[C@H](C(=O)N[C@H](CCCCN)C(=O)N[C@H](C(=O)N[C@@H](CC(C)C)C(=O)N[C@@H](CC(C)C)C(N)=O)[C@@H](C)O)[C@@H](C)CC	> 256 µM
> 128 µM	64 µM (≈ 79.2 µg/mL)	> 128 µM	128 µM (≈ 158 µg/mL)	64 µM (≈ 79.2 µg/mL)	> 128 µM	128 µM (≈ 158 µg/mL)	CCCCC(=O)NCCCC[C@@H](NC(=O)[C@@H](NC(=O)[C@H](CCCNC(=N)N)NC(=O)[C@@H](CCCCN)NC(=O)[C@H](CC(C)C)NC(=O)[C@H](CC(C)C)NC(=O)CN)[C@@H](C)CC)C(=O)N[C@H](C(=O)N[C@@H](CC(C)C)C(=O)N[C@@H](CC(C)C)C(N)=O)[C@@H](C)O	> 256 µM
128 µM	32 µM (≈ 40.5 µg/mL)	32 µM (≈ 40.5 µg/mL)	32 µM (≈ 40.5 µg/mL)	8 µM (≈ 10.1 µg/mL)	128 µM (≈ 162 µg/mL)	16 µM (≈ 20.3 µg/mL)	CCCCCCC(=O)NCCCC[C@@H](NC(=O)[C@@H](NC(=O)[C@H](CCCNC(=N)N)NC(=O)[C@@H](CCCCN)NC(=O)[C@H](CC(C)C)NC(=O)[C@H](CC(C)C)NC(=O)CN)[C@@H](C)CC)C(=O)N[C@H](C(=O)N[C@@H](CC(C)C)C(=O)N[C@@H](CC(C)C)C(N)=O)[C@@H](C)O	256 µM
16 µM	32 µM (≈ 41.4 µg/mL)	32 µM (≈ 41.4 µg/mL)	32 µM (≈ 41.4 µg/mL)	4 µM (≈ 5.18 µg/mL)	128 µM (≈ 166 µg/mL)	8 µM (≈ 10.4 µg/mL)	CCCCCCCCC(=O)NCCCC[C@@H](NC(=O)[C@H](CC(C)C)NC(=O)[C@H](CC(C)C)NC(=O)CN)C(=O)N[C@@H](CCCNC(=N)N)C(=O)N[C@H](C(=O)N[C@H](CCCCN)C(=O)N[C@H](C(=O)N[C@@H](CC(C)C)C(=O)N[C@@H](CC(C)C)C(N)=O)[C@@H](C)O)[C@@H](C)CC	> 256 µM
4 µM	4 µM (≈ 5.4 µg/mL)	4 µM (≈ 5.4 µg/mL)	4 µM (≈ 5.4 µg/mL)	2 µM (≈ 2.7 µg/mL)	8 µM (≈ 10.8 µg/mL)	4 µM (≈ 5.4 µg/mL)	CCCCCCCCCCCCC(=O)NCCCC[C@@H](NC(=O)[C@H](CC(C)C)NC(=O)[C@H](CC(C)C)NC(=O)CN)C(=O)N[C@@H](CCCNC(=N)N)C(=O)N[C@H](C(=O)N[C@H](CCCCN)C(=O)N[C@H](C(=O)N[C@@H](CC(C)C)C(=O)N[C@@H](CC(C)C)C(N)=O)[C@@H](C)O)[C@@H](C)CC	32 µM
8 µM	16 µM (≈ 22 µg/mL)	8 µM (≈ 11 µg/mL)	8 µM (≈ 11 µg/mL)	4 µM (≈ 5.51 µg/mL)	32 µM (≈ 44.1 µg/mL)	4 µM (≈ 5.51 µg/mL)	CCCCCCCCCCCCCCC(=O)NCCCC[C@@H](NC(=O)[C@H](CC(C)C)NC(=O)[C@H](CC(C)C)NC(=O)CN)C(=O)N[C@@H](CCCNC(=N)N)C(=O)N[C@H](C(=O)N[C@H](CCCCN)C(=O)N[C@H](C(=O)N[C@@H](CC(C)C)C(=O)N[C@@H](CC(C)C)C(N)=O)[C@@H](C)O)[C@@H](C)CC	32 µM

Source: ChEMBL document CHEMBL5608163, “Structure modification of anoplin for fighting resistant bacteria” (Eur J Med Chem, 2024)
